The record followed here is ChEMBL document CHEMBL3407489, “Bis-aryl urea derivatives as potent and selective LIM kinase (Limk) inhibitors” (J Med Chem, 2015).

The nature of data set [1]: Oral bioavailability in Sprague-Dawley rat at 2 mg/kg by LC-MS/MS and HPLC method. Format: ADME, organism-based. The note with it: in vivo.
Data set [2] in a line: Volume of distribution in Sprague-Dawley rat at 1 mg/kg, iv by LC-MS/MS and HPLC method. In kind it is ADME, organism-based. The arrangement: dose 1 mg/kg, route intravenous. The following applies: in vivo.
The subject of data set [3] is PC-3. Description: cells. The following applies: Homo sapiens, PC-3, 24 h, read-out: INH.
Description: Inhibition of cell migration of human PC3 cells at 10 uM after 24 hrs wound healing assay
The target in the next data set is T1, CYP1A2 (Homo sapiens, UniProt P05177).
T1 sequence (P05177 whole entry): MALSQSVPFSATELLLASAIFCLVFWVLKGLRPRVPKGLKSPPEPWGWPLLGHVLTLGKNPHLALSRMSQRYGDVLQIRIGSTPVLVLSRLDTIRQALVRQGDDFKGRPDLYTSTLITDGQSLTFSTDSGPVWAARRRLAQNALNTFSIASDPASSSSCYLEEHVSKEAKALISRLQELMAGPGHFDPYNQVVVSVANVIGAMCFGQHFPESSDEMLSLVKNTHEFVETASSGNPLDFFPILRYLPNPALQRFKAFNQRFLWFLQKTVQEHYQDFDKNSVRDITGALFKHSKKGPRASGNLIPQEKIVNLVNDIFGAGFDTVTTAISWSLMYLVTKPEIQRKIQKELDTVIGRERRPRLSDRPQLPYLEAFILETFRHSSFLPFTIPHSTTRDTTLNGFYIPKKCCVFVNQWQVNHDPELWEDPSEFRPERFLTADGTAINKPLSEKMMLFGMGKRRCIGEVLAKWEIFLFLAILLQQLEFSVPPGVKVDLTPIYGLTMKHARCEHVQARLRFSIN
Description: Inhibition of CYP1A2 (unknown origin) assessed as reduction in phenaceten demethylation to acetaminophen at 10 uM. In kind it is ADME.

Another data set concerns the target CYP2D6 (Homo sapiens, UniProt P10635). Put plainly: Inhibition of CYP2D6 (unknown origin) assessed as reduction in bufuralol hydroxylation to […] at 10 uM. The following applies: probe bufuralol. In kind it is ADME.
Data set [4] deals with PC-3. Put plainly: cells. The following applies: Homo sapiens, PC-3, 24 h, read-out: INH. This is another data set of the same source.
Description: Inhibition of cell migration of human PC3 cells at 1 uM after 24 hrs wound healing assay
The test system of data set [5] is PC-3. Put plainly: cells. The following applies: Homo sapiens, PC-3, 24 h, read-out: INH. This is another data set of the same source.
Description: Inhibition of cell migration of human PC3 cells at 0.1 uM after 24 hrs wound healing assay
The test system of data set [6] is PC-3. Description: cells. The following applies: Homo sapiens, PC-3, 48 h, read-out: INH.
Description: Inhibition of cell invasion of human PC3 cells at 1 uM after 48 hrs by hematoxylin staining based transwell chamber assay
In data set [7] the test system is Liver microsome. Description: Half life in human liver microsomes. In kind it is ADME.
Data set [8] relates to Liver microsome. Put plainly: Half life in rat liver microsomes. Format: ADME.
The target of a further data set is CYP3A4 (Homo sapiens, UniProt P08684). Put plainly: Inhibition of CYP3A4 (unknown origin) assessed as reduction in midazolam hydroxylation to 1'-Hydroxymidazolam at 10 uM. Format: ADME. The following applies: probe midazolam.
CYP3A4, sequence (P08684 whole entry): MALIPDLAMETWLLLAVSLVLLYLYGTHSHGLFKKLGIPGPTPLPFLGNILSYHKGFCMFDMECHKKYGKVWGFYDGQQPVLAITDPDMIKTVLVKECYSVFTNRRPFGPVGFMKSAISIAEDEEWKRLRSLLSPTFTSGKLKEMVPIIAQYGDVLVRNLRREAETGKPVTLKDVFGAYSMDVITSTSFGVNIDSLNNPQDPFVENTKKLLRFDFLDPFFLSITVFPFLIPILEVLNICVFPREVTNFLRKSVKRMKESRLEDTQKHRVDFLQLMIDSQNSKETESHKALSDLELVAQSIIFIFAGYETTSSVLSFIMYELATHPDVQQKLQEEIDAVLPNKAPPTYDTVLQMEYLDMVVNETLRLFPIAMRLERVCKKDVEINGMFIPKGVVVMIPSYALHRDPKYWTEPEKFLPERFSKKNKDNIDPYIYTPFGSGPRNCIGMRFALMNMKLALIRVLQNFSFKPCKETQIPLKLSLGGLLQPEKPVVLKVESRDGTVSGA
The next data set has as its target CYP2C9 (Homo sapiens, UniProt P11712). Description: Inhibition of CYP2C9 (unknown origin) assessed as reduction in tolbutamide hydroxylation to hydrocytolbutamide at 10 uM. Format: ADME.
Data set [9] has as its target T2, LIM domain kinase 1 (Homo sapiens, UniProt P53667).
Description: Inhibition of human Limk1 using cofilin substrate, ATP and [gamma33P]ATP
The target in data set [10] is Rho-associated protein kinase 2 (Homo sapiens, UniProt O75116).
Rho-associated protein kinase 2, sequence (O75116 whole entry, the tested form may be a part): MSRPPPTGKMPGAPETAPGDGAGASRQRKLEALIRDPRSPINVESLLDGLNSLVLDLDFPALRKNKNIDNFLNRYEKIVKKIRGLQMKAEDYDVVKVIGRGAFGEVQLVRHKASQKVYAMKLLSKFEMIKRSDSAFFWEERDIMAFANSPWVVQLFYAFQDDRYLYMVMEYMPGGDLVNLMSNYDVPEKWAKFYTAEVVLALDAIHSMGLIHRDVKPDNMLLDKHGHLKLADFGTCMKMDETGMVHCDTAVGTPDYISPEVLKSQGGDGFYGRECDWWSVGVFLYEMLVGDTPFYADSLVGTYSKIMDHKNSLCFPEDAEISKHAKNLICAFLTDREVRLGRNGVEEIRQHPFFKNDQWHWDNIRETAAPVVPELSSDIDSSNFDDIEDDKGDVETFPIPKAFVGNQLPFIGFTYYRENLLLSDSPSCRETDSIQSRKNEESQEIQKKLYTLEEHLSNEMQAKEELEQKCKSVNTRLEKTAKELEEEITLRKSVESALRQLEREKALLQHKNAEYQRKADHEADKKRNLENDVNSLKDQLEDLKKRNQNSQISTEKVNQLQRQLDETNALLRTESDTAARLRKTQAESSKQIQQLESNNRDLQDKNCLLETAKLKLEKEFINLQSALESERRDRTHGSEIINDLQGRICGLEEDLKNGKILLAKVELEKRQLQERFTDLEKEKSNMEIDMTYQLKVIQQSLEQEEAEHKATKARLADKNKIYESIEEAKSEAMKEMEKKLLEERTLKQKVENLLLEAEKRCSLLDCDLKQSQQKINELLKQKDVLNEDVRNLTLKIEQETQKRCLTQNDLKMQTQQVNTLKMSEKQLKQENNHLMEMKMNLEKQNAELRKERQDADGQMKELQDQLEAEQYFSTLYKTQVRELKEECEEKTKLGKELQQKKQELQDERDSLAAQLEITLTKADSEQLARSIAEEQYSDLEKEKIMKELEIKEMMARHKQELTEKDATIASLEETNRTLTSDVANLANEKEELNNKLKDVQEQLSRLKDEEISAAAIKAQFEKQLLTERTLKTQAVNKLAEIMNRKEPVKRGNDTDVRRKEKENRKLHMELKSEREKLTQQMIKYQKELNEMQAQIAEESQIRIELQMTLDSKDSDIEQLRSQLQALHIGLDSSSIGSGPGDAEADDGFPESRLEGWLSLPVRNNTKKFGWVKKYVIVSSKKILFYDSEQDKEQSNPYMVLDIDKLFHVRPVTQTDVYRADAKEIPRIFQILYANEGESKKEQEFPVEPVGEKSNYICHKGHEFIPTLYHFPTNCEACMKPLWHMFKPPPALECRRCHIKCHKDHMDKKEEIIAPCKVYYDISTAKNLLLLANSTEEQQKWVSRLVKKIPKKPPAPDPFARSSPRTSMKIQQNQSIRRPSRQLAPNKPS
For data set [11], the target named is LIM domain kinase 1 (Rattus norvegicus, UniProt P53669). Put plainly: Inhibition of Limk1 in rat A7r5 cells assessed as reduction in cofilin phosphorylation by Western blot method. Format: cell-based. For orientation: Immunoblotting shows a protein as a band on a membrane.
LIM domain kinase 1 (Rattus norvegicus, UniProt P53669), sequence (P53669 whole entry, the tested form may be a part): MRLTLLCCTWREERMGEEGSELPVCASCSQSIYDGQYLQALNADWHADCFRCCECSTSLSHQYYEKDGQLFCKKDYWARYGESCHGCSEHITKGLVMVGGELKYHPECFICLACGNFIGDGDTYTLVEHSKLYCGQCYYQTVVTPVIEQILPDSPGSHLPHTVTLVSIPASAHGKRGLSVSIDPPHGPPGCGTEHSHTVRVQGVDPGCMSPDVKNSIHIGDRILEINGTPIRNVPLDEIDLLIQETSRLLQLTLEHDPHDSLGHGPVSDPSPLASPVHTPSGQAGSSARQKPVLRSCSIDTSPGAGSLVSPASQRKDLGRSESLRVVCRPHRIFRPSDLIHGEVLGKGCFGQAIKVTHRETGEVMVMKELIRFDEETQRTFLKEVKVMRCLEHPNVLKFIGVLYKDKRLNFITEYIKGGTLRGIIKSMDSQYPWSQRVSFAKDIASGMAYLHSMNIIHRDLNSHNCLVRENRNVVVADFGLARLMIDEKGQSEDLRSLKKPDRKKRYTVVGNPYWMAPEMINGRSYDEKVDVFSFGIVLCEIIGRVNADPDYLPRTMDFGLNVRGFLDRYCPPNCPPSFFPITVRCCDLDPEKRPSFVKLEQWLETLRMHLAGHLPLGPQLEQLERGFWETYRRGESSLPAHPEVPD
Data set [12] has as its target T2, LIM domain kinase 1. Description: Inhibition of Limk1 (unknown origin).

T2 sequence (P53667 whole entry, the tested form may be a part): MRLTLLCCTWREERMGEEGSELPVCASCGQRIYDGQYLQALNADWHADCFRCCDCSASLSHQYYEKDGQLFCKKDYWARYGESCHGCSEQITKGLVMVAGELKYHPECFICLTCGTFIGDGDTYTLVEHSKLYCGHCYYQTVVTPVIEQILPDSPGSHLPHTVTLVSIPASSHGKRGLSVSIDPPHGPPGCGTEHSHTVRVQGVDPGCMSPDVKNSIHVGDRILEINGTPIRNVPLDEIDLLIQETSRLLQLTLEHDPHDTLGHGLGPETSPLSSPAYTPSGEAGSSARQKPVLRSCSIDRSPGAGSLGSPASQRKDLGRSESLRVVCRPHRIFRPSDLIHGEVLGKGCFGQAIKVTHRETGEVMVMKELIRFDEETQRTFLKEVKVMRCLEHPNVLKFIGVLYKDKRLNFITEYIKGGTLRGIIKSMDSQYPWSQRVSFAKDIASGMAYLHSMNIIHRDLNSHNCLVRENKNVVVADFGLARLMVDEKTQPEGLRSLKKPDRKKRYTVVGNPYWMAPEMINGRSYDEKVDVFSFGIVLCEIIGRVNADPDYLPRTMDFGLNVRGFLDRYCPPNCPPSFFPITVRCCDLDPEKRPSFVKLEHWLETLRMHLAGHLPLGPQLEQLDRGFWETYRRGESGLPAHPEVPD
CYP2D6, sequence (P10635 whole entry): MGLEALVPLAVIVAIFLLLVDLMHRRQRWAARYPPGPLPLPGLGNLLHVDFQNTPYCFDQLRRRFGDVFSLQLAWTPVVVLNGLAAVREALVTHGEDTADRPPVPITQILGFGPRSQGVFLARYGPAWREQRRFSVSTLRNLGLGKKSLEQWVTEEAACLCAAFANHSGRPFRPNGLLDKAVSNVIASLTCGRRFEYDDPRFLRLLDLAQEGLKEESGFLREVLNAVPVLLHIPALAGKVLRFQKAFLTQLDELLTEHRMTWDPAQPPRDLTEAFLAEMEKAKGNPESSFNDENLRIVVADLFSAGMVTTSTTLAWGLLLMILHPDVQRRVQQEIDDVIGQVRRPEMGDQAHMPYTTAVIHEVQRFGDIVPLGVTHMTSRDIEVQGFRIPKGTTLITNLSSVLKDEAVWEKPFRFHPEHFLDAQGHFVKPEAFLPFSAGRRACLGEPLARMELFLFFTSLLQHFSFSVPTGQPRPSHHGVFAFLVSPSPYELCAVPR
CYP2C9, sequence (P11712 whole entry, the tested form may be a part): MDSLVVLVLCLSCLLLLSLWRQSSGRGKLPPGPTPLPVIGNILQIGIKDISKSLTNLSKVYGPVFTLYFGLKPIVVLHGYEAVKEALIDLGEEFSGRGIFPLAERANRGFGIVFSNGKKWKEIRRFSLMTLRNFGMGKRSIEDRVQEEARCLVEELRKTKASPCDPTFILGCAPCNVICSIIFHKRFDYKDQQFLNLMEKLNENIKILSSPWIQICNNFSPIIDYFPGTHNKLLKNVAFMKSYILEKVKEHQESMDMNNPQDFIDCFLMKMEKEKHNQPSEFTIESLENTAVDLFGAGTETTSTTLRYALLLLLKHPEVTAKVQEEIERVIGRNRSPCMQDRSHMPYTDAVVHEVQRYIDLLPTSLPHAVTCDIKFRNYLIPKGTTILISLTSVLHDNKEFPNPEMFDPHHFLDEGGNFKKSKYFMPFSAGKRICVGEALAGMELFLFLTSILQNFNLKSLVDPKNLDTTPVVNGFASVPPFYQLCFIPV

The bioavailability is the share of a dose that reaches the circulation, judged against a reference dose that is usually intravenous. High values mean much systemic uptake, low ones little systemic uptake. As usually defined, the Vd is the apparent volume that relates the amount in the body to the concentration in plasma or blood. Low readings indicate little distribution into tissue, high ones wide distribution into tissue. Compound `Cc1c[nH]c2ncnc(-c3ccc(NC(=O)N(CCN)c4ccc(Cl)cc4)cc3)c12` registered a bioavailability in data set [1] of 0%. The compound also gave a Vd in data set [2] of 4 L/kg.
The like results for `Cc1c[nH]c2ncnc(-c3ccc(NC(=O)Nc4ccccc4)cc3)c12` were, in that order, 16% and 0.5 L/kg.
Turning to `Cc1c[nH]c2ncnc(-c3ccc(NC(=O)N(CCO)c4ccccc4)cc3)c12`, the figures for the inhibition at 10 µM with PC-3 [3], at CYP1A2 and on CYP2D6 were 77.5%, -16% and 5%, respectively. Also, the values for the inhibition at 1 µM in the data set on PC-3 [4] and in the data set on PC-3 [6] were 74% and 76%, respectively. In the data set with PC-3 [5], the inhibition at 0.1 µM worked out at 16.5%. The compound also displayed a bioavailability in data set [1] of 36%. Further, the distribution volume (Vd) in data set [2] was determined as 0.4 L/kg. Moreover, the t1/2 in the data set with Liver microsome [7] came to 87 min; in the data set on Liver microsome [8], 30 min.
On to `COc1ccc(N(CCO)C(=O)Nc2ccc(-c3ncnc4[nH]cc(C)c34)cc2)cc1`, for which the inhibition at 10 µM is 2% at CYP3A4, -8% at CYP1A2, -4% at CYP2D6 and 8% on CYP2C9. For the same compound, the bioavailability in [1] is 24%. Besides, the volume of distribution (Vd) in data set [2] turned out to be 0.3 L/kg. The t1/2 in the data set on Liver microsome [7] is listed as 56 min; with Liver microsome [8], 40 min.
By IC50 is commonly meant the midpoint of a concentration-inhibition curve. Consider `COc1ccc(NC(=O)N(CCN2CCCC2)c2ccc(-c3ncnc4[nH]cc(C)c34)cc2)cc1`, for which half-maximal inhibition against LIM domain kinase 1 [9] (IC50) was put at 9240 nM.
Turning to `CC(C)NC(=O)c1cccc(NC(=O)Nc2ccc(-c3ncnc4[nH]cnc34)cc2)c1`, the 50% inhibitory concentration (IC50) against LIM domain kinase 1 [9] is 1530 nM; in [10], 5570 nM.
`Cc1[nH]c2ncnc(-c3ccc(NC(=O)N(CCN(C)C)c4ccc(Cl)cc4)c(F)c3)c2c1C`: the inhibition at 10 µM on CYP3A4 is -9%; on CYP2D6, 20%; on CYP2C9, -23%. Also, the half-maximal inhibitory concentration (IC50) at LIM domain kinase 1 [11] is 320 nM. Moreover, the Vd in [2] is 1.5 L/kg. The t1/2 with Liver microsome [7] came to 19 min; in the data set with Liver microsome [8] it was 23 min.
On LIM domain kinase 1 [12], `COc1c(C=O)c(O)cc2c1C(=O)c1ccccc1C2=O` [DAMNACANTHAL] returned a half-inhibitory concentration (IC50) of 800 nM.
Consider `Cc1ccc(N(CCO)C(=O)Nc2ccc(-c3ncnc4[nH]cc(C)c34)cc2)cc1`, for which the inhibition at 10 µM at CYP3A4 is 5%; on CYP1A2 it was -5%; at CYP2D6, -4%. In data set [1], the bioavailability came out at 24%. The distribution volume (Vd) in data set [2] turned out to be 0.3 L/kg. Moreover, the results for the t1/2 with Liver microsome [7] and in the data set with Liver microsome [8] were 56 min and 39 min, respectively.
At LIM domain kinase 1 [9], `CC(C)NC(=O)c1cccc(NC(=O)Nc2ccc(-c3ccnc4[nH]ccc34)cc2)c1` came in with a 50% inhibitory concentration (IC50) greater than 10000 nM.
For the compound `COCCN(C(=O)Nc1ccc(-c2ncnc3[nH]c(C)c(C)c23)cc1F)c1ccc(Cl)cc1`, the inhibition at 10 µM at CYP2C9 came to 50%. Also, at LIM domain kinase 1 [11], the half-inhibitory concentration (IC50) is 250 nM. The compound further displayed a Vd in data set [2] of 1.2 L/kg. Moreover, the t1/2 in the data set with Liver microsome [8] came out at 13 min.
In the case of `COc1ccccc1N(CCO)C(=O)Nc1ccc(-c2ncnc3[nH]cc(C)c23)cc1`, the IC50 in data set [10] is greater than 10000 nM.
For `Cc1[nH]c2ncnc(-c3ccc(NC(=O)Nc4cccc(C(=O)NC(C)C)c4)cc3)c2c1C`, the t1/2 in the data set on Liver microsome [7] is reported as 47 min; with Liver microsome [8] it was greater than 120 min.
For `Cc1c[nH]c2ncnc(-c3ccc(NC(=O)N(CCO)c4ccc(F)cc4)cc3)c12`, the inhibition at 10 µM was -4% at CYP1A2 and 3% on CYP2D6. Further, the t1/2 is on record as 44 min with Liver microsome [7] and 52 min in the data set with Liver microsome [8].
As to `Cc1c[nH]c2ncnc(-c3ccc(NC(=O)N(CCO)c4ccccc4Cl)cc3)c12`, the inhibition at 10 µM with PC-3 [3] is 81%; at CYP1A2 it was -4%; at CYP2D6, 1%. For the same compound, the inhibition at 1 µM came to 76.1% with PC-3 [4] and 83% in the data set with PC-3 [6]. Moreover, in the data set on PC-3 [5], the inhibition at 0.1 µM was found to be 13%. The IC50 on LIM domain kinase 1 [11] was 420 nM. Further, the bioavailability in data set [1] was found to be 21%. The compound further returned a distribution volume (Vd) in data set [2] of 0.7 L/kg. The same compound yielded a t1/2 in the data set on Liver microsome [8] of 38 min.
For `COc1ccc(N(CCN)C(=O)Nc2ccc(-c3ncnc4[nH]cc(C)c34)cc2)cc1`, in [1], the bioavailability turned out to be 0%. Besides, in [2], the distribution volume (Vd) came to 6 L/kg.
Consider `Cc1[nH]c2ncnc(-c3ccc(NC(=O)N(CCN)c4ccc(Cl)cc4)c(F)c3)c2c1C`, for which the inhibition at 10 µM at CYP3A4 is -11%. Besides, the t1/2 in the data set on Liver microsome [7] and in the data set on Liver microsome [8] was greater than 120 min throughout.
As for `Cc1c[nH]c2ncnc(-c3ccc(NC(=O)N(CCO)c4cccc(Cl)c4)cc3)c12`, the inhibition at 10 µM was -19% at CYP1A2 and 2% on CYP2D6. Besides, on LIM domain kinase 1 [11], the IC50 is 372 nM. The t1/2 is 22 min in the data set on Liver microsome [7] and 20 min in the data set on Liver microsome [8].
In the case of `COc1cccc(N(CCO)C(=O)Nc2ccc(-c3ncnc4[nH]cc(C)c34)cc2)c1`, the inhibition at 10 µM at CYP1A2 and on CYP2D6 was 3% each time. Moreover, the values for the t1/2 in the data set with Liver microsome [7] and in the data set on Liver microsome [8] were 38 min and 21 min, respectively.
Compound `Cc1c[nH]c2ncnc(-c3ccc(NC(=O)Nc4cccc(C(=O)NC(C)C)c4)cc3)c12` had a bioavailability in data set [1] of 0%. This compound also yielded a Vd in data set [2] of 0.3 L/kg.
Consider `COc1ccc(NC(=O)N(CCN2CCCCC2)c2ccc(-c3ncnc4[nH]cc(C)c34)cc2)cc1`, for which the IC50 against LIM domain kinase 1 [9] is greater than 10000 nM.
For `Cc1c[nH]c2ncnc(-c3ccc(NC(=O)N(CCO)c4ccc(Cl)cc4)cc3)c12`, the inhibition at 10 µM is -12% at CYP1A2 and 4% at CYP2D6. The concentration for half-maximal inhibition (IC50) at LIM domain kinase 1 [11] turned out to be 118 nM. The compound also returned a bioavailability in data set [1] of 20%. In data set [2], this compound had a distribution volume (Vd) of 0.5 L/kg. Further, the t1/2 in the data set with Liver microsome [7] was greater than 120 min; with Liver microsome [8], 73 min.
Regarding `Cc1c[nH]c2ncnc(-c3ccc(NC(=O)Nc4cccc(C(=O)NC(C)C)c4)c(F)c3)c12`, the concentration for half-maximal inhibition (IC50) on LIM domain kinase 1 [11] was determined as 4000 nM. The compound also yielded a bioavailability in data set [1] of 0%. The distribution volume (Vd) in [2] stood at 0.7 L/kg. In addition, the t1/2 in the data set with Liver microsome [7] is 27 min; in the data set with Liver microsome [8], 55 min.
In the case of `Cc1[nH]c2ncnc(-c3ccc(NC(=O)N(CCO)c4ccc(Cl)cc4)c(F)c3)c2c1C`, the inhibition at 10 µM stood at 40% at CYP1A2 and 8% on CYP2D6. Further, the bioavailability in data set [1] is 29%. In [2], the volume of distribution (Vd) amounted to 0.5 L/kg. Besides, the t1/2 in the data set with Liver microsome [7] is reported as 99 min; in the data set with Liver microsome [8] it was 44 min.
Take `Cc1c[nH]c2ncnc(-c3ccc(NC(=O)N(CCN(C)C)c4ccc(Cl)cc4)cc3)c12`: in data set [1], the bioavailability amounted to 0%. Besides, the Vd in data set [2] turned out to be 17.1 L/kg.
